# Where two headings read alike, the source gives them in different places.
# What was measured:
# [1] = test system: T-47D; assay: NCI in-vitro testing, T-47D (Breast Cancer)
# [2] = test system: H1933; assay: Cell viability, H1933 lung cancer cells; format: cell-based, human; details: Homo sapiens; H1933, Lung; read-out: IC50 (−LogM) (converted)
# [3] = test system: SK-MEL-28; assay: NCI in-vitro testing, SK-MEL-28 (Melanoma)
# [4] = test system: CCRF-CEM; assay: NCI in-vitro testing, CCRF-CEM (Leukemia)
# [5] = test system: DLD1; assay: Cell viability, DLD1 colon cancer cells; format: cell-based, human; details: Homo sapiens, DLD-1; DLD1, Colon; read-out: IC50 (−LogM) (converted)
# [6] = test system: SN12C; assay: NCI in-vitro testing, SN12C (Renal Cancer)
# [7] = test system: CT116P53; assay: Cell viability, CT116P53 colon cancer cells; format: cell-based, human; details: Homo sapiens; CT116P53, Colon; read-out: IC50 (−LogM) (converted)
# [8] = test system: MDA-MB-435; assay: NCI in-vitro testing, MDA-MB-435 (Breast Cancer)
# [9] = test system: H226B cells; assay: Cell viability, H226B lung cancer cells; format: cell-based, human; details: Homo sapiens, H226B, Lung, read-out: IC50 (−LogM) (converted)
# [10] = test system: H2122; assay: Cell viability, H2122 lung cancer cells; format: cell-based, human; details: Homo sapiens, NCI-H2122; H2122, Lung; read-out: IC50 (−LogM) (converted)
# [11] = test system: SF-295; assay: NCI in-vitro testing, SF-295 (CNS Cancer)
# [12] = test system: Hct116; assay: Cell viability, Hct116 colon cancer cells; format: cell-based, human; details: Homo sapiens, HCT-116; Hct116, Colon; read-out: IC50 (−LogM) (converted)
# [13] = test system: AsPC-1; assay: Cell viability, AsPC-1 pancreatic cancer cells; format: cell-based, human; details: Homo sapiens; ASPC1, Pancrease; read-out: IC50 (−LogM) (converted)
# [14] = test system: H2009; assay: Cell viability, H2009 lung cancer cells; format: cell-based, human; details: Homo sapiens, NCI-H2009; H2009, Lung; read-out: IC50 (−LogM) (converted)
# [15] = test system: Ovcar3; assay: Cell viability, Ovcar3 ovary cancer cells; format: cell-based; details: Homo sapiens, OVCAR-3
# [16] = test system: NCI-H522; assay: NCI in-vitro testing, NCI-H522 (Non-Small Cell Lung Cancer)
# [17] = test system: Ovca429; assay: Cell viability, Ovca429 ovary cancer cells; format: cell-based
# [18] = test system: U251; assay: NCI in-vitro testing, U251 (CNS Cancer)
# [19] = test system: A549 cells; assay: Cell viability, A549 lung cancer cells; format: cell-based, human; details: Homo sapiens; A549, Lung; read-out: IC50 (−LogM) (converted)
# [20] = test system: Heb44; assay: Cell viability, Heb44 kidney cells; format: cell-based
# [21] = test system: H1395; assay: Cell viability, H1395 lung cancer cells; format: cell-based, human; details: Homo sapiens, NCI-H1395; H1395, Lung; read-out: IC50 (−LogM) (converted)
# [22] = test system: A549CK8; assay: Cell viability, A549CK8 lung cancer cells; format: cell-based, human; details: Homo sapiens; A549CK8, Lung; read-out: IC50 (−LogM) (converted)
# [23] = test system: HKE3; assay: Cell viability, HKE3 colon cancer cells; format: cell-based, human; details: Homo sapiens, HKE3, Colon, read-out: IC50 (−LogM) (converted)
# [24] = test system: H1299 cells; assay: Cell viability, H1299 lung cancer cells; format: cell-based, human; details: Homo sapiens, NCI-H1299; h1299, Lung; read-out: IC50 (−LogM) (converted)
# [25] = test system: Capanc-1; assay: Cell viability, Capanc-1 pancreatic cancer cells; format: cell-based, human; details: Homo sapiens, Pancreatic cancer cell; capanc1, Pancrease; read-out: IC50 (−LogM) (converted)
# [26] = test system: Heb46; assay: Cell viability, Heb46 kidney cells; format: cell-based
# [27] = test system: miapac; assay: Cell viability, miapac pancreatic cancer cells; format: cell-based, human; details: Homo sapiens, Pancreatic cancer cell; miapac, Pancrease; read-out: IC50 (−LogM) (converted)
# [28] = Homo sapiens, read-out: Log10 GI50 (converted)
compound,measurement,setting,value
"OCc1cn(Cc2ccc(Cl)cc2)c2ccccc12 [Oncrasin K060, 1H-Indole-3-methanol, 1-[(4-chlorophenyl)methyl]-]",GI50,"[1]; Homo sapiens, T47D",0.0267 µM
same,CC50,"[1]; Homo sapiens, T47D, read-out: LC50",> 100 µM
same,GI50,"[1]; Homo sapiens, T47D, read-out: Log10 GI50 (converted)",0.0269 µM
same,TGI,[1]; T-47D,4.23E−7 Molar
same,Percent Growth,"[1]; T-47D, Log10 Concentration −4.0 Molar",−14%
same,Percent Growth,"[1]; T-47D, Log10 Concentration −5.0 Molar",−16%
same,Percent Growth,"[1]; T-47D, Log10 Concentration −6.0 Molar",−12%
same,Percent Growth,"[1]; T-47D, Log10 Concentration −7.0 Molar",20%
same,Percent Growth,"[1]; T-47D, Log10 Concentration −8.0 Molar",73%
same,IC50,[2],10 µM
same,GI50,"[3]; Homo sapiens, SK-MEL-28",18 µM
same,CC50,"[3]; Homo sapiens, SK-MEL-28, read-out: LC50",> 100 µM
same,GI50,"[3]; Homo sapiens, SK-MEL-28, read-out: Log10 GI50 (converted)",17.8 µM
same,TGI,[3]; SK-MEL-28,4.44E−5 Molar
same,Percent Growth,"[3]; SK-MEL-28, Log10 Concentration −4.0 Molar",−15%
same,Percent Growth,"[3]; SK-MEL-28, Log10 Concentration −5.0 Molar",82%
same,Percent Growth,"[3]; SK-MEL-28, Log10 Concentration −6.0 Molar",93%
same,Percent Growth,"[3]; SK-MEL-28, Log10 Concentration −7.0 Molar",99%
same,Percent Growth,"[3]; SK-MEL-28, Log10 Concentration −8.0 Molar",93%
same,TGI,[4],4.31E−6 Molar
same,GI50,[4]; Homo sapiens,1.74 µM
same,CC50,"[4]; Homo sapiens, read-out: LC50",14.8 µM
same,GI50,[4]; [28],1.74 µM
same,Percent Growth,[4]; Log10 Concentration −4.0 Molar,−67%
same,Percent Growth,[4]; Log10 Concentration −5.0 Molar,−47%
same,Percent Growth,[4]; Log10 Concentration −6.0 Molar,81%
same,Percent Growth,[4]; Log10 Concentration −7.0 Molar,97%
same,Percent Growth,[4]; Log10 Concentration −8.0 Molar,100%
same,IC50,[5],< 31.6 µM
same,TGI,[6],1.94E−5 Molar
same,GI50,[6]; Homo sapiens,3.56 µM
same,CC50,"[6]; Homo sapiens, read-out: LC50",87.2 µM
same,GI50,[6]; [28],3.55 µM
same,Percent Growth,[6]; Log10 Concentration −4.0 Molar,−68%
same,Percent Growth,[6]; Log10 Concentration −5.0 Molar,27%
same,Percent Growth,[6]; Log10 Concentration −6.0 Molar,78%
same,Percent Growth,[6]; Log10 Concentration −7.0 Molar,93%
same,Percent Growth,[6]; Log10 Concentration −8.0 Molar,97%
same,IC50,[7],< 31.6 µM
same,GI50,"[8]; Homo sapiens, MDA-MB-435",19.3 µM
same,CC50,"[8]; Homo sapiens, MDA-MB-435, read-out: LC50",> 100 µM
same,GI50,"[8]; Homo sapiens, MDA-MB-435, read-out: Log10 GI50 (converted)",19.1 µM
same,TGI,[8]; MDA-MB-435,5.47E−5 Molar
same,Percent Growth,"[8]; MDA-MB-435, Log10 Concentration −4.0 Molar",−29%
same,Percent Growth,"[8]; MDA-MB-435, Log10 Concentration −5.0 Molar",81%
same,Percent Growth,"[8]; MDA-MB-435, Log10 Concentration −6.0 Molar",96%
same,Percent Growth,"[8]; MDA-MB-435, Log10 Concentration −7.0 Molar",100%
same,Percent Growth,"[8]; MDA-MB-435, Log10 Concentration −8.0 Molar",102%
same,IC50,[9]; first H226B line,0.00251 µM
same,IC50,[9]; second H226B line,0.00316 µM
same,IC50,[10],1 µM
same,GI50,"[11]; Homo sapiens, SF-295",14.3 µM
same,CC50,"[11]; Homo sapiens, SF-295, read-out: LC50",> 100 µM
same,GI50,"[11]; Homo sapiens, SF-295, read-out: Log10 GI50 (converted)",1.41 µM
same,TGI,[11]; SF-295,3.52E−5 Molar
same,Percent Growth,"[11]; SF-295, Log10 Concentration −4.0 Molar",−15%
same,Percent Growth,"[11]; SF-295, Log10 Concentration −5.0 Molar",18%
same,Percent Growth,"[11]; SF-295, Log10 Concentration −6.0 Molar",56%
same,Percent Growth,"[11]; SF-295, Log10 Concentration −7.0 Molar",80%
same,Percent Growth,"[11]; SF-295, Log10 Concentration −8.0 Molar",104%
same,IC50,[12],0.1 µM
same,IC50,[13],2 µM
same,IC50,[14],15.8 µM
same,IC50,[15],0.1 µM
same,TGI,[16],1.24E−5 Molar
same,GI50,"[16]; Homo sapiens, NCI-H522",2.41 µM
same,CC50,"[16]; Homo sapiens, NCI-H522, read-out: LC50",51 µM
same,GI50,"[16]; Homo sapiens, NCI-H522, read-out: Log10 GI50 (converted)",2.4 µM
same,Percent Growth,[16]; Log10 Concentration −4.0 Molar,−74%
same,Percent Growth,[16]; Log10 Concentration −5.0 Molar,7%
same,Percent Growth,[16]; Log10 Concentration −6.0 Molar,76%
same,Percent Growth,[16]; Log10 Concentration −7.0 Molar,82%
same,Percent Growth,[16]; Log10 Concentration −8.0 Molar,91%
same,IC50,[17],31.6 µM
same,GI50,"[18]; Homo sapiens, U-251",2.46 µM
same,CC50,"[18]; Homo sapiens, U-251, read-out: LC50",> 100 µM
same,GI50,"[18]; Homo sapiens, U-251, read-out: Log10 GI50 (converted)",2.45 µM
same,TGI,[18]; U251,2.63E−5 Molar
same,Percent Growth,"[18]; U251, Log10 Concentration −4.0 Molar",−35%
same,Percent Growth,"[18]; U251, Log10 Concentration −5.0 Molar",25%
same,Percent Growth,"[18]; U251, Log10 Concentration −6.0 Molar",55%
same,Percent Growth,"[18]; U251, Log10 Concentration −7.0 Molar",84%
same,Percent Growth,"[18]; U251, Log10 Concentration −8.0 Molar",93%
same,IC50,[19],2 µM
same,IC50,[20],0.01 µM
same,IC50,[21],20 µM
same,IC50,[22],1 µM
same,IC50,[23]; first HKE3 line,0.0251 µM
same,IC50,[23]; second HKE3 line,< 0.00316 µM
same,IC50,[24],3.16 µM
same,IC50,[25],10 µM
same,IC50,[26],0.2 µM
same,IC50,[27],< 31.6 µM
